Results taken from PubChem BioAssay (NCI).
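Compound exposure: 48 hours, 5 concentrations, 96-well plates. Abbreviation: GI50, concentration required for 50% inhibition of growth. TGI marks complete inhibition of growth.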

Legend:
Experiment in all cases: DTP human tumour cell line panel, 48 h
[1] = system: SNB-75 CNS
[2] = system: SN12C renal
[3] = system: MOLT-4 leukemia
[4] = system: HOP-62 NSCLC
[5] = system: OVCAR-4 ovarian
[6] = system: HT29 colon
[7] = system: UACC-62 melanoma
[8] = system: PC-3 prostate
[9] = system: MDA-MB-231 breast
[10] = system: SK-OV-3 ovarian
[11] = system: OVCAR-3 ovarian
[12] = system: EKVX NSCLC
[13] = system: A498 renal
[14] = system: RXF 393 renal
[15] = system: SF-268 CNS
[16] = system: K-562 leukemia
[17] = system: MCF7 breast
[18] = system: SW-620 colon
[19] = system: SF-539 CNS
[20] = system: NCI/ADR-RES ovarian
[21] = system: SNB-19 CNS
[22] = system: NCI-H23 lung
[23] = system: UACC-257 melanoma
[24] = system: M14 melanoma
[25] = system: LOX IMVI melanoma
[26] = system: HCC-2998 colon
[27] = system: KM12 colon
[28] = system: MDA-N
[29] = system: HL-60(TB) leukemia
[30] = system: SK-MEL-28 melanoma
[31] = system: UO-31 renal
[32] = system: U251 CNS
[33] = system: HCT-15 colon
[34] = system: CAKI-1 renal
[35] = system: TK-10 renal
[36] = system: A549 NSCLC
[37] = system: ACHN renal
[38] = system: OVCAR-5 ovarian
[39] = system: NCI-H226 lung
[40] = system: HCT-116 colon
[41] = system: 786-0 renal
[42] = system: IGROV1 ovarian
[43] = system: DU-145 prostate
[44] = system: MDA-MB-435
[45] = system: T-47D breast
[46] = system: SF-295 CNS
[47] = system: SK-MEL-2 melanoma
[48] = system: NCI-H460 lung
[49] = system: NCI-H522 lung
[50] = system: CCRF-CEM leukemia
[51] = system: HOP-92 NSCLC
[52] = system: MALME-3M melanoma
[53] = system: COLO 205 colon
[54] = system: OVCAR-8 ovarian
[55] = system: SR leukemia
[56] = system: RPMI-8226 leukemia
[57] = system: BT-549 breast
[58] = system: HS 578T breast
[59] = system: SK-MEL-5 melanoma

Structure (SMILES): COC(=O)CNC(=O)CCSc1nnc(COc2ccc(Cl)cc2)n1-c1ccccc1
- TGI [1]: 40.7 µM
- TGI [2]: 45.9 µM
- TGI [3]: > 100 µM
- TGI [4]: > 100 µM
- TGI [5]: > 100 µM
- TGI [6]: > 100 µM
- TGI [7]: 44 µM
- TGI [8]: > 100 µM
- TGI [9]: 49.1 µM
- TGI [10]: > 100 µM
- TGI [11]: > 100 µM
- TGI [12]: > 100 µM
- TGI [13]: > 100 µM
- TGI [14]: 67.5 µM
- TGI [15]: 48.5 µM
- TGI [16]: > 100 µM
- TGI [17]: > 100 µM
- TGI [18]: > 100 µM
- TGI [19]: > 100 µM
- TGI [20]: > 100 µM
- TGI [21]: > 100 µM
- TGI [22]: > 100 µM
- TGI [23]: 38.8 µM
- TGI [24]: 65.5 µM
- TGI [25]: > 100 µM
- TGI [26]: > 100 µM
- TGI [27]: > 100 µM
- TGI [28]: 37.6 µM
- TGI [29]: > 100 µM
- TGI [30]: 56.9 µM
- TGI [31]: > 100 µM
- TGI [32]: > 100 µM
- TGI [33]: > 100 µM
- TGI [34]: 26.7 µM
- TGI [35]: 35 µM
- TGI [36]: > 100 µM
- TGI [37]: > 100 µM
- TGI [38]: > 100 µM
- TGI [39]: 84.6 µM
- TGI [40]: > 100 µM
- TGI [41]: 42.6 µM
- TGI [42]: 98.7 µM
- TGI [43]: 51.5 µM
- TGI [44]: 60.4 µM
- TGI [45]: > 100 µM
- TGI [46]: > 100 µM
- TGI [47]: 48.8 µM
- TGI [48]: > 100 µM
- TGI [49]: 33.6 µM
- TGI [50]: > 100 µM
- TGI [51]: > 100 µM
- TGI [52]: 58.3 µM
- TGI [53]: > 100 µM
- TGI [54]: > 100 µM

Structure (SMILES): CCC(C)C1=NC(C(=O)N/C=C\c2c[nH]c3cc(Br)c(Br)cc23)(C(C)C)NC1=O (centres undefined)
- GI50 [1]: 3.37 µM
- TGI [1]: 10.2 µM
- GI50 [2]: 18.3 µM
- TGI [2]: 37.5 µM
- GI50 [3]: 15.2 µM
- TGI [3]: 30.3 µM
- GI50 [55]: 17 µM
- TGI [55]: 37.1 µM
- GI50 [4]: 19.8 µM
- TGI [4]: 36.3 µM
- GI50 [5]: 11.1 µM
- TGI [5]: 32.3 µM
- GI50 [6]: 18.3 µM
- TGI [6]: 44.4 µM
- GI50 [7]: 12 µM
- TGI [7]: 26.9 µM
- GI50 [8]: 10.1 µM
- TGI [8]: 25.1 µM
- GI50 [56]: 8.75 µM
- TGI [56]: 39 µM
- GI50 [9]: 17.4 µM
- TGI [9]: 39.3 µM
- GI50 [10]: 18.6 µM
- TGI [10]: 34.9 µM
- GI50 [11]: 5.38 µM
- TGI [11]: 18.4 µM
- GI50 [12]: 5.98 µM
- TGI [12]: 20 µM
- GI50 [13]: 17.8 µM
- TGI [13]: 35 µM
- GI50 [14]: 15.4 µM
- TGI [14]: 29.2 µM
- GI50 [15]: 15 µM
- TGI [15]: 30.1 µM
- GI50 [16]: 16.5 µM
- TGI [16]: 35.8 µM
- GI50 [17]: 13.6 µM
- TGI [17]: 29.6 µM
- GI50 [18]: 16.9 µM
- TGI [18]: 38.2 µM
- GI50 [19]: 21 µM
- TGI [19]: 42.5 µM
- GI50 [20]: 27.3 µM
- TGI [20]: > 100 µM
- GI50 [21]: 18.5 µM
- TGI [21]: 35 µM
- GI50 [22]: 16 µM
- TGI [22]: 29.4 µM
- GI50 [23]: 15.3 µM
- TGI [23]: 28.6 µM
- GI50 [24]: 14 µM
- TGI [24]: 27.3 µM
- GI50 [25]: 16.6 µM
- TGI [25]: 31.9 µM
- GI50 [27]: 18.5 µM
- TGI [27]: 44.3 µM
- GI50 [57]: 23.7 µM
- TGI [57]: 71.2 µM
- GI50 [28]: 15.4 µM
- TGI [28]: 30 µM
- GI50 [29]: 33.7 µM
- TGI [29]: 59.6 µM
- GI50 [30]: 15 µM
- TGI [30]: 32.7 µM
- GI50 [31]: 12.2 µM
- TGI [31]: 24.6 µM
- GI50 [32]: 14.1 µM
- TGI [32]: 29 µM
- GI50 [33]: 28.1 µM
- TGI [33]: 79.6 µM
- GI50 [34]: 12.2 µM
- TGI [34]: 26.8 µM
- GI50 [35]: 18.5 µM
- TGI [35]: 35.7 µM
- GI50 [58]: 21.4 µM
- TGI [58]: 68.4 µM
- GI50 [36]: 11.7 µM
- TGI [36]: 26.5 µM
- GI50 [37]: 18.3 µM
- TGI [37]: 39.6 µM
- GI50 [38]: 15.4 µM
- TGI [38]: 29 µM
- GI50 [40]: 15.6 µM
- TGI [40]: 31.3 µM
- GI50 [41]: 20.2 µM
- TGI [41]: 42.9 µM
- GI50 [42]: 6.36 µM
- TGI [42]: 19.7 µM
- GI50 [43]: 14.3 µM
- TGI [43]: 27.4 µM
- GI50 [44]: 12 µM
- TGI [44]: 24.4 µM
- GI50 [46]: 15.9 µM
- TGI [46]: 30.1 µM
- GI50 [47]: 12.3 µM
- TGI [47]: 26.7 µM
- GI50 [48]: 12.9 µM
- TGI [48]: 26.7 µM
- GI50 [49]: 13.5 µM
- TGI [49]: 26.4 µM
- GI50 [50]: 18.2 µM
- TGI [50]: > 100 µM
- GI50 [52]: 20.6 µM
- TGI [52]: 39.3 µM
- GI50 [53]: 14 µM
- TGI [53]: 29.3 µM
- GI50 [54]: 32.3 µM
- TGI [54]: > 100 µM
- GI50 [59]: 11.7 µM
- TGI [59]: 25.1 µM
